The record followed here is ChEMBL document CHEMBL1201862, “PubChem BioAssay data set” (2004).

Some test systems named below: OVCAR-8; HCT-116; HCC 2998; UACC-257; SF-539; NCI-H226; IGROV-1; HCT-15; UACC-62; MDA-MB-231; EKVX; MCF7; OVCAR-4; SNB-75; MOLT-4; MDA-MB-435; T47D; K562.
Common to all, as to test: inhibition of tumour cell growth, NCI panel, 48 h

Molecules are shown by their SMILES.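 Five concentrations, 48 hours, 96-well plates. At the GI50, growth is halved.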 Active and inactive are the calls of the source. Rule as the data show it: active = GI50 up to about 1.1 µM and inactive = higher. A value given as a limit tells only on which side of the number the result lay.

As for `COc1cc(Nc2ccc3c(c2)CCC3)nc(OC)n1`, the GI50 in the assay on OVCAR-8 was 34.8 µM (inactive); in the assay with HCT-116, 38.2 µM (inactive); with HCC 2998, 29.7 µM (inactive); in the assay with UACC-257, 44.4 µM (inactive); in the assay with SF-539 it was 38.9 µM (inactive); in the assay with NCI-H226, 32.5 µM (inactive). Also, the GI50 in the assay with IGROV-1 is 31.4 µM (inactive); in the assay with HCT-15, 27.8 µM; in the assay with UACC-62, 51.3 µM (inactive); in the assay with MDA-MB-231, 38.5 µM (inactive); with EKVX it was 17.1 µM (inactive); in the assay on MCF7, 29.6 µM (inactive). The GI50 was 33.3 µM (inactive) with OVCAR-4; 18.9 µM (inactive) in the assay with SNB-75; 0.0144 µM (active) with MOLT-4; > 100 µM (inactive) in the assay with MDA-MB-435; 26.4 µM (inactive) with T47D.

On to `O=C(/C=C/c1ccccc1)Oc1ccc(C(=O)/C=C/c2ccccc2)cc1`, for which the GI50 with OVCAR-8 was 10.2 µM (inactive); in the assay on HCT-116 it was 9.64 µM (inactive); with HCC 2998, 8.47 µM (inactive); in the assay on UACC-257 it was 13.6 µM (inactive); in the assay with SF-539, 3.24 µM (inactive); in the assay on NCI-H226, 34.4 µM (inactive). The GI50 with IGROV-1 was 11.5 µM (inactive); with HCT-15, 4.29 µM; with UACC-62, 12.9 µM (inactive); with MDA-MB-231 it was 13.2 µM (inactive); in the assay on EKVX, 13.3 µM (inactive); with MCF7 it was 6.08 µM (inactive). In addition, the GI50 in the assay with OVCAR-4 was 25.8 µM (inactive); with SNB-75 it was 12.5 µM (inactive); in the assay with MOLT-4 it was 11.2 µM (inactive); with MDA-MB-435, 4.65 µM (inactive); with K562 it was 3.4 µM (inactive); in the assay with T47D, 11 µM (inactive).

With `CC(C)=CCC[C@@H](C)C1=C(O)C(=O)C(C)=C(Nc2ccccc2I)C1=O`, the GI50 is 3.08 µM (inactive) with OVCAR-8; 11.8 µM (inactive) with HCT-116; 16.6 µM (inactive) with HCC 2998; 16.3 µM (inactive) in the assay with UACC-257; 9.23 µM (inactive) in the assay with SF-539; 5.42 µM (inactive) in the assay with NCI-H226. The GI50 with IGROV-1 is 3.41 µM (inactive); in the assay on HCT-15 it was 6.56 µM; in the assay with UACC-62, 9.27 µM (inactive); with MDA-MB-231, 23.8 µM (inactive); in the assay with EKVX, 18.2 µM (inactive); in the assay with MCF7, 23.2 µM (inactive). In addition, the GI50 is 5.01 µM (inactive) in the assay with OVCAR-4; 6.14 µM (inactive) in the assay with SNB-75; 2.22 µM (inactive) in the assay with MOLT-4; 21.5 µM (inactive) in the assay on MDA-MB-435; 12.5 µM (inactive) in the assay on K562; 8.2 µM (inactive) with T47D.

Take `CC1=CCS(=O)(=O)C1C(O)C1=C(C)CCCC1(C)C` (stereo not drawn): the GI50 in the assay with OVCAR-8 is > 100 µM (inactive); in the assay with HCT-116, 72.3 µM (inactive); in the assay with HCC 2998 it was > 100 µM (inactive); in the assay on UACC-257 it was 58.9 µM (inactive); with SF-539 it was > 100 µM (inactive); in the assay with NCI-H226, > 100 µM (inactive). Also, the GI50 in the assay with IGROV-1 was > 100 µM (inactive); in the assay with HCT-15, over 100 µM; with UACC-62, 87.1 µM (inactive); in the assay with MDA-MB-231 it was > 100 µM (inactive); in the assay on EKVX, > 100 µM (inactive); in the assay with MCF7, 50.8 µM (inactive). Besides, the GI50 is 84.5 µM (inactive) in the assay on OVCAR-4; 98.4 µM (inactive) in the assay on SNB-75; 51.2 µM (inactive) with MOLT-4; 63.4 µM (inactive) in the assay with MDA-MB-435; 43.1 µM (inactive) in the assay on K562; 45.7 µM (inactive) in the assay on T47D.

On to `CC1C(c2ccccc2O)c2cc3c(cc2OC1N1CCOCC1)OCO3` (stereo not drawn), for which the GI50 was 32.1 µM (inactive) in the assay with OVCAR-8; 26.4 µM (inactive) with HCT-116; 25 µM (inactive) with HCC 2998; 19.6 µM (inactive) in the assay on UACC-257; 20.5 µM (inactive) in the assay on SF-539; 25.3 µM (inactive) in the assay on NCI-H226. Moreover, the GI50 is 27.7 µM (inactive) in the assay on IGROV-1; 31 µM in the assay on HCT-15; 26.2 µM (inactive) in the assay with UACC-62; 29.9 µM (inactive) in the assay on MDA-MB-231; 34.3 µM (inactive) in the assay with EKVX; 33 µM (inactive) in the assay on MCF7. In addition, the GI50 in the assay with SNB-75 is 27.8 µM (inactive); with MOLT-4, 25.8 µM (inactive); in the assay on MDA-MB-435, 25.4 µM (inactive); in the assay on K562, 22.1 µM (inactive); in the assay on T47D it was 31.7 µM (inactive).

On to `O=C1NC(N2CCOCC2)=N/C1=C\c1ccc(Cl)cc1`, for which the GI50 with OVCAR-8, in the assay on HCT-116, in the assay with HCC 2998, with UACC-257, in the assay on SF-539 and in the assay with NCI-H226 was > 100 µM (inactive) in each case. Besides, the GI50 in the assay with IGROV-1 was > 100 µM (inactive); with HCT-15, over 100 µM; in the assay with UACC-62, > 100 µM (inactive); in the assay on MDA-MB-231, > 100 µM (inactive); in the assay with EKVX, > 100 µM (inactive); in the assay on MCF7 it was > 100 µM (inactive). Also, the GI50 was > 100 µM (inactive) with OVCAR-4; 60.8 µM (inactive) with SNB-75; > 100 µM (inactive) in the assay on MOLT-4; > 100 µM (inactive) in the assay on MDA-MB-435; > 100 µM (inactive) with T47D.

Consider `Cc1oc2nc1C(=O)NCc1nc(cs1)C(=O)N[C@H](C(C)C)c1nc(cs1)C(=O)N[C@H]2C`, for which the GI50 with OVCAR-8 was 35.2 µM (inactive); with HCT-116 it was 45.8 µM (inactive); in the assay with HCC 2998 it was 43.7 µM (inactive); in the assay on UACC-257 it was > 100 µM (inactive); in the assay with SF-539, 42.3 µM (inactive); in the assay with NCI-H226, 42.9 µM (inactive). The GI50 in the assay with IGROV-1 is 29.9 µM (inactive); in the assay on HCT-15, 52.8 µM; in the assay on UACC-62 it was 81.5 µM (inactive); in the assay with MDA-MB-231 it was 9.57 µM (inactive); in the assay on EKVX it was > 100 µM (inactive); with MCF7, 82.2 µM (inactive). Moreover, the GI50 with OVCAR-4 is > 100 µM (inactive); in the assay on SNB-75, 95.7 µM (inactive); in the assay on MOLT-4 it was 81.7 µM (inactive); in the assay with MDA-MB-435, > 100 µM (inactive); in the assay on K562, 54.8 µM (inactive); with T47D, 28.5 µM (inactive).

With `O=c1c2ccccc2nc(-c2cccc([N+](=O)[O-])c2)n1O`, the GI50 with OVCAR-8 was 20.3 µM (inactive); in the assay on HCT-116 it was 41.5 µM (inactive); in the assay with HCC 2998, 59.6 µM (inactive); in the assay with UACC-257 it was 50.7 µM (inactive); in the assay with SF-539 it was 47.8 µM (inactive); in the assay on NCI-H226, 23.7 µM (inactive). The GI50 with IGROV-1 was 22.8 µM (inactive); in the assay with HCT-15 it was 17.8 µM; in the assay on UACC-62 it was 33.5 µM (inactive); in the assay on MDA-MB-231 it was 17.5 µM (inactive); in the assay on EKVX it was 36.8 µM (inactive); in the assay on MCF7, 24.4 µM (inactive). The GI50 in the assay on OVCAR-4 is 33 µM (inactive); in the assay on SNB-75, 45.8 µM (inactive); in the assay with MDA-MB-435, 41.5 µM (inactive); with K562 it was 4.22 µM (inactive); in the assay on T47D, 58.5 µM (inactive).

Regarding `Cc1sc2nc(-c3ccc(Cl)c([N+](=O)[O-])c3)c(/C=N/NC(=N)N)n2c1C`, the GI50 was 0.824 µM (active) with OVCAR-8; 1.1 µM (active) in the assay on HCC 2998; 1.29 µM (inactive) in the assay on UACC-257; 1.64 µM (inactive) with SF-539; 1.61 µM (inactive) in the assay on NCI-H226; 1.09 µM (active) in the assay with IGROV-1. For the same molecule, the GI50 in the assay on HCT-15 was 1.37 µM; in the assay with UACC-62, 1.79 µM (inactive); with MDA-MB-231 it was 0.615 µM (active); with EKVX, 1.69 µM (inactive); with MCF7, 0.685 µM (active); in the assay on MOLT-4, 1.5 µM (inactive). Moreover, the GI50 was 1.51 µM (inactive) with MDA-MB-435, 2.39 µM (inactive) in the assay on K562 and 1.46 µM (inactive) with T47D.

Regarding `CC1CCN(C(C)C)P(=S)(Cc2ccccc2)O1` (stereo not drawn), the GI50 was > 100 µM (inactive) in the assay with OVCAR-8; 59.6 µM (inactive) in the assay with HCT-116; 83.9 µM (inactive) in the assay on HCC 2998; 97.3 µM (inactive) in the assay on UACC-257; > 100 µM (inactive) in the assay on SF-539; > 100 µM (inactive) in the assay on NCI-H226. Besides, the GI50 is > 100 µM (inactive) with IGROV-1; over 100 µM in the assay on HCT-15; 16.7 µM (inactive) with UACC-62; > 100 µM (inactive) with MDA-MB-231; 75.3 µM (inactive) with EKVX; > 100 µM (inactive) in the assay on MCF7. For the same molecule, the GI50 with OVCAR-4 is 84.3 µM (inactive); in the assay on MOLT-4 it was > 100 µM (inactive); in the assay on MDA-MB-435 it was > 100 µM (inactive); with K562, 70.1 µM (inactive); with T47D it was 11.2 µM (inactive).

For `Cc1cc2[nH]c3c(C#N)c(-c4ccccc4)c(/C=N/c4ccc(F)cc4)c(=O)n3c2cc1C`, the GI50 with OVCAR-8 is > 100 µM (inactive); in the assay on HCT-116, > 100 µM (inactive); in the assay on HCC 2998, > 100 µM (inactive); in the assay on UACC-257, > 100 µM (inactive); in the assay with SF-539, > 100 µM (inactive); with NCI-H226 it was 69.7 µM (inactive). For the same molecule, the GI50 in the assay on IGROV-1 is > 100 µM (inactive); in the assay on HCT-15 it was over 100 µM; with MDA-MB-231 it was > 100 µM (inactive); in the assay with EKVX, > 100 µM (inactive); in the assay with MCF7, 86.9 µM (inactive); in the assay with OVCAR-4 it was > 100 µM (inactive). Moreover, the GI50 in the assay on SNB-75 was > 100 µM (inactive); with MDA-MB-435, 91.2 µM (inactive); with T47D it was 40.6 µM (inactive).

On to `Clc1ccc(/C=C/c2nc(-c3ccccc3)cn3c2nc2ccccc23)cc1Cl`, for which the GI50 was 27.7 µM (inactive) in the assay on HCT-116; 43.5 µM (inactive) with HCC 2998; > 100 µM (inactive) in the assay on UACC-257; > 100 µM (inactive) in the assay with SF-539; > 100 µM (inactive) in the assay with NCI-H226; 36.1 µM (inactive) in the assay on IGROV-1. For the same molecule, the GI50 in the assay on HCT-15 is 34.3 µM; with UACC-62, > 100 µM (inactive); with MDA-MB-231 it was > 100 µM (inactive); in the assay with EKVX it was 40.3 µM (inactive); with MCF7, 34.8 µM (inactive); in the assay with OVCAR-4 it was 40.9 µM (inactive). The GI50 was 46.9 µM (inactive) in the assay on MOLT-4, 35.3 µM (inactive) in the assay on MDA-MB-435, 43.6 µM (inactive) with K562 and 41.7 µM (inactive) in the assay on T47D.
